This note sets out measurements from patent US12209085B2, “RET inhibitors, pharmaceutical compositions and uses thereof” (SUNSHINE LAKE PHARMA CO., LTD., priority 2018, dated 2025).

Common to all, as to assay type: biochemical
Common to all, as to settings: HTRF method
(In general: In TR-FRET formats the signal depends on donor and acceptor labels being close together.)

One assay addresses Ret wt (Homo sapiens (Human), UniProt P07949). The assay is described as follows: HTRF kinase inhibition assay, Ret wt. The method in brief: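 IC50 from non-linear four-parameter (Hill slope) fit of inhibition against log compound concentration.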
The target in the next assay is Ret V804L (Homo sapiens (Human), UniProt P07949, V804L). Briefly: HTRF kinase inhibition assay, Ret V804L. The text has this: (§1) • 1. […] 1) • 18) Echo (Labcyte, 550) • 3.
Sequence of Ret V804L (P07949 29-1114 V804L): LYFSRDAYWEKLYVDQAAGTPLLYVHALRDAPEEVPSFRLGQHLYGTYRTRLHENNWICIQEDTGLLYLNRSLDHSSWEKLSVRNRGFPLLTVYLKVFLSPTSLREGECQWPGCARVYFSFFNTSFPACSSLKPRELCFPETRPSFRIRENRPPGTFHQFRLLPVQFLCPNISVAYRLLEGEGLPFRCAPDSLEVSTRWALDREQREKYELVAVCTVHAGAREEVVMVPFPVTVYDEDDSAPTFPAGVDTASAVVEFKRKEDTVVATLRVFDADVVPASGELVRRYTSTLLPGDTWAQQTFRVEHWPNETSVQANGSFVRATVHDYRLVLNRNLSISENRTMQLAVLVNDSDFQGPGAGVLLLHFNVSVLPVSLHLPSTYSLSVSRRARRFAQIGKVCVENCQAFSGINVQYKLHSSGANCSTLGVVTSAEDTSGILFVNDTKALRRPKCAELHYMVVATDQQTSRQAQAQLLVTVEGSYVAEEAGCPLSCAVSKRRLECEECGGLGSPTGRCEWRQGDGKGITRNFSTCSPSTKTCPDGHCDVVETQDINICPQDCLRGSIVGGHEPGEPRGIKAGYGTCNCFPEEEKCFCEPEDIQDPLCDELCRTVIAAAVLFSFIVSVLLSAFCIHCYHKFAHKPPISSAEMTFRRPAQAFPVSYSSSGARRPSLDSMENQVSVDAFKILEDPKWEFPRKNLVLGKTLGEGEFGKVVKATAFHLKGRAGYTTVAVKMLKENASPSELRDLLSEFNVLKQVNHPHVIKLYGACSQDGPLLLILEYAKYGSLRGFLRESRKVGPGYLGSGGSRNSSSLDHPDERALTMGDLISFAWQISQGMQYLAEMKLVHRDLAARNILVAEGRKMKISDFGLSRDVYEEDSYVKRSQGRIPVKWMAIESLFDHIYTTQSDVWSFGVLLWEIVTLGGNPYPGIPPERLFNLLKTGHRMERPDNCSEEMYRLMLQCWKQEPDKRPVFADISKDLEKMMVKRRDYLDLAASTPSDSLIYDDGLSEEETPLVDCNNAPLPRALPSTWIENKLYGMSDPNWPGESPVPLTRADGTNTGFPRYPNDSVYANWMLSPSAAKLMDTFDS
(§2) [formula] • Ratiopositive control: average of CEP-32496 readings in all positive control wells • Rationegative control: average of DMSO readings in all negative control wells • Wherein, the chemical name of CEP-32496 is: N-[3-[(6,7-dimethoxy-4-quinazolinyl)oxy]phenyl]-N′-[5-(2,2,2-trifluoro-1,1-dimethylethyl)-3-isoxazolyl]urea. • 4.3 Calculation of the IC50 and Drawing of the inhibition curve of the compound: • The IC50 (half inhibitory concentration) of the compound was obtained using the following non-linear fitting formula: Data analysis was performed using Graphpad 6.0 software. Y=Bottom+(Top−Bottom)/(1+10^((Log IC50−X)*Hill Slope)) • X: compound concentration log value Y: inhibition, % • 5.

A further assay has as its target Ret M918T (Homo sapiens (Human), UniProt P07949, M918T). The assay is described as follows: HTRF kinase inhibition assay, Ret M918T.
Source text: as §1, §2

A further assay has as its target CCDC6-RET (Homo sapiens (Human), UniProt P07949+Q16204). Briefly: HTRF kinase inhibition assay, CCDC6-RET.
Source text: as §1, §2

The target in the next assay is Ret V804M (Homo sapiens (Human), UniProt P07949, V804M). The assay is described as follows: HTRF kinase inhibition assay, Ret V804M.
Sequence of Ret V804M (P07949 29-1114 V804M): as the sequence (P07949 29-1114 V804L) above, with L776M counted along it
Source text: as §1, §2

Sequence of Ret wt (P07949 29-1114): as the sequence (P07949 29-1114 V804L) above, with L776V counted along it
Sequence of CCDC6-RET (P07949 other isoform, or with tags, fused parts or gaps): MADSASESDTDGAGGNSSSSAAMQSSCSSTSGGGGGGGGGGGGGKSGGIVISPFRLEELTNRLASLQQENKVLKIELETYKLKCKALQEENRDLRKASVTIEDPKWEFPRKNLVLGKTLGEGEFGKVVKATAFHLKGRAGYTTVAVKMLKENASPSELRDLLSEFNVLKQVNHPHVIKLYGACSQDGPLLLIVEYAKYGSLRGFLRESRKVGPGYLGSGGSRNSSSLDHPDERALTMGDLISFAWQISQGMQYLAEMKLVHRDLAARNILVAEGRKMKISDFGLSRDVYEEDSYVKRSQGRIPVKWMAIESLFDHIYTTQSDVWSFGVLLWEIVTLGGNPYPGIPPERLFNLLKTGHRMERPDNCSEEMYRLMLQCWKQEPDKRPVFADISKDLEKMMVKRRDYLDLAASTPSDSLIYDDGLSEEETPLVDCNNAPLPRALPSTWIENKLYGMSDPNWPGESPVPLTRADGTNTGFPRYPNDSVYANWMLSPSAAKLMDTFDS
Sequence of Ret M918T (P07949 29-1114 M918T): as the sequence (P07949 29-1114 V804L) above, with L776V, M890T counted along it

As for `Cn1cc(-c2cc(-c3ccc(N4CCN(C(=O)C#Cc5ccccc5)CC4)nc3)c3c(C#N)cnn3c2)cn1` [Example 1, 3-cyano-6-(1-methyl-1H-pyrazol-4-yl)-4-(6-(4-(3-phenylpropioloyl)piperazin-1-yl)pyridine-3-yl)pyrazolo[1,5-a]pyridine], the IC50 (usually the concentration at which inhibition is half-maximal) against Ret wt was determined as 0.61 nM; against Ret V804L it was 0.95 nM; against Ret M918T, 0.97 nM; against CCDC6-RET, 0.87 nM; at Ret V804M, 5.53 nM.

As for `C#Cc1ccc(C(=O)N2CCN(c3ccc(-c4cc(-c5cnn(C)c5)cn5ncc(C#N)c45)cn3)CC2)cc1` [Example 3, 3-cyano-4-(6-(4-(4-ethynylbenzoyl)piperazin-1-yl)pyridin-3-yl)-6-(1-methyl-1H-pyrazol-4-yl)pyrazolo[1,5-a]pyridine], the IC50 at Ret wt was 0.27 nM; against Ret V804L, 0.3 nM; at Ret M918T it was 0.7 nM; against CCDC6-RET, 0.8 nM; on Ret V804M, 16.6 nM.

As for `C#Cc1cccc(C(=O)NC2(C)CCN(c3ccc(-c4cc(-c5cnn(C)c5)cn5ncc(C#N)c45)cn3)CC2)c1` [Example 4, N-(1-(5-(3-cyano-6-(1-methyl-1H-pyrazol-4-yl)pyrazolo[1,5-a]pyridin-4-yl)pyridin-2-yl)-4-methylpiperidin-4-yl)-3-ethynylbenzamide], the IC50 against Ret wt amounted to 0.27 nM; at Ret V804L it was 0.2 nM; against Ret M918T, 2.8 nM; against CCDC6-RET, 0.6 nM; against Ret V804M, 2.3 nM.

Turning to `COc1ccc(C#CCN2C3CC2CN(c2ccc(-c4cc(-c5cnn(C)c5)cn5ncc(C#N)c45)cn2)C3)cn1` [Example 194, 4-(6-(6-(3-(6-methoxypyridin-3-yl)prop-2-yn-1-yl)-3,6-diazabicyclo[3.1.1]heptane-3-yl)pyridin-3-yl)-6-(1-methyl-1H-pyrazol-4-yl)pyrazolo[1,5-a]pyridin-3-carbonitrile], the IC50 at Ret wt is 0.68 nM; on Ret V804L, 0.23 nM; on Ret M918T, 0.62 nM; against CCDC6-RET it was 0.26 nM; against Ret V804M it was 7.07 nM.

On to `COc1cncc(C#CCN2C3CC2CN(c2ccc(-c4cc(-c5cnn(C)c5)cn5ncc(C#N)c45)cn2)C3)c1` [Example 215, 4-(6-(6-(3-(5-methoxypyridin-3-yl)prop-2-yn-1-yl)-3,6-diazabicyclo[3.1.1]heptane-3-yl)pyridin-3-yl)-6-(1-methyl-1H-pyrazol-4-yl)pyrazolo[1,5-a]pyridin-3-carbonitrile], for which the IC50 is 0.16 nM on Ret wt; 0.06 nM at Ret V804L; 0.183 nM against Ret M918T; 0.16 nM at CCDC6-RET; 0.42 nM on Ret V804M.

Consider `C#CCNC1(C)CCN(c2ccc(-c3cc(-c4cnn(C)c4)cn4ncc(C#N)c34)cn2)CC1` [Example 277, 6-(1-methyl-1H-pyrazol-4-yl)-4-(6-(4-methyl-4-(prop-2-yn-1-ylamino)piperidin-1-yl)pyridin-3-yl)pyrazolo[1,5-a]pyridine-3-carbonitrile], for which the IC50 on Ret wt was determined as 1.38 nM; against Ret V804M it was 10.3 nM.

As to `C#Cc1ccc(OC2CN(c3ccc(-c4cc(-c5cnn(C6CC6)c5)cn5ncc(C#N)c45)cn3)C2)cn1` [Example 280, 6-(1-cyclopropyl-1H-pyrazol-4-yl)-4-(6-(3-((6-ethynylpyridin-3-yl)oxy)azetidin-1-yl)pyridin-3-yl)pyrazolo[1,5-a]pyridine-3-carbonitrile], the results for the concentration for half-maximal inhibition (IC50) on Ret wt and on Ret V804M were 0.43 nM and 0.92 nM, respectively.

On to `C#Cc1ccc(OC2CN(c3ccc(-c4cc(-c5c(C)noc5C)cn5ncc(C#N)c45)cn3)C2)cn1` [Example 282, 6-(3,5-dimethylisoxazol-4-yl)-4-(6-(3-((6-ethynylpyridin-3-yl)oxy)azetidin-1-yl)pyridin-3-yl)pyrazolo[1,5-a]pyridine-3-carbonitrile], for which the IC50 on Ret wt is 2.9 nM; against Ret V804M, 60.8 nM.

Turning to `C#Cc1ccc(OC2CN(c3ccc(-c4cc(-c5cnn(C(F)F)c5)cn5ncc(C#N)c45)cn3)C2)cn1` [Example 283, 6-(1-(difluoromethyl)-1H-pyrazol-4-yl)-4-(6-(3-((6-ethynylpyridin-3-yl)oxy)azetidin-1-yl)pyridin-3-yl)pyrazolo[1,5-a]pyridine-3-carbonitrile], the IC50 against Ret wt is 0.39 nM; on Ret V804M, 2.29 nM.

`C#Cc1ccc(O[C@H]2CCN(c3ccc(-c4cc(-c5cnn(C(F)F)c5)cn5ncc(C#N)c45)cn3)C2)cn1` [Example 284, (S)-6-(1-(difluoromethyl)-1H-pyrazol-4-yl)-4-(6-(3-((6-ethynylpyridin-3-yl)oxy)pyrrolidin-1-yl)pyridin-3-yl) pyrazolo[1,5-a]pyridine-3-carbonitrile]: the values for the IC50 against Ret wt and against Ret V804M were 1.63 nM and 23 nM, respectively.

As for `C#Cc1ccc(OC2CN(c3ccc(-c4cc(-c5cnn(C(F)F)c5)cn5ncc(C#N)c45)cn3)C2)cc1` [Example 285, 6-(1-(difluoromethyl)-1H-pyrazol-4-yl)-4-(6-(3-(4-ethynylphenoxy)azetidin-1-yl)pyridin-3-yl)pyrazolo[1,5-a]pyridine-3-carbonitrile], the IC50 against Ret wt is 0.56 nM; on Ret V804M, 0.71 nM.

Regarding `C#Cc1ccc(O[C@@H]2CCN(c3ccc(-c4cc(-c5cnn(C(F)F)c5)cn5ncc(C#N)c45)cn3)C2)cc1` [Example 286, (R)-6-(1-(difluoromethyl)-1H-pyrazol-4-yl)-4-(6-(3-(4-ethynylphenoxy)pyrrolidin-1-yl)pyridin-3-yl)pyrazolo[1,5-a]pyridine-3-carbonitrile], the IC50 at Ret wt and against Ret V804M was 0.85 nM in each case.

Regarding `C#Cc1ccc(OC2CN(c3ccc(-c4cc(-c5cnn(C)c5)cn5ncc(C#N)c45)cn3)C2)cn1` [Example 287, 4-(6-(3-((6-ethynylpyridin-3-yl)oxy)azetidin-1-yl)pyridin-3-yl)-6-(1-methyl-1H-pyrazol-4-yl) pyrazolo[1,5-a]pyridine-3-carbonitrile], the IC50 against Ret wt amounted to 0.13 nM; against Ret V804M, 0.2 nM.
